Test [1] relates to Lassa virus. Put plainly: Antiviral activity against Lassa virus pseudovirions infected in HEK293T/17 cells after 72 hrs by luciferase reporter gene assay. It is filed as functional, organism-based. The note with it: Mammarenavirus lassaense, HEK-293T. For orientation: Reporter assays use an easily measured gene product as a stand-in for the process of interest.
Test [2] relates to Lassa virus. Nature of the test: Antiviral activity against Lassa virus infected in guinea pig strain 13 assessed as host survival rate at 80 mg/kg/day, ip administered at 1 hr prior to infection for 14 days relative to control. It is filed as functional, Mammarenavirus lassaense. The note with it: route intraperitoneal.
Test [3] deals with Sabia virus. Nature of the test: Antiviral activity against Sabia virus pseudovirions infected in HEK293T/17 cells after 72 hrs by luciferase reporter gene assay. It is filed as functional, cell-based. The note with it: HEK-293T.
Test [4] relates to Machupo mammarenavirus. Nature of the test: Antiviral activity against Machupo virus pseudovirions infected in HEK293T/17 cells after 72 hrs by luciferase reporter gene assay. In kind it is functional, cell-based. The note with it: Mammarenavirus machupoense, HEK-293T.
The subject of test [5] is Junin virus. Put plainly: Antiviral activity against Junin virus pseudovirions infected in HEK293T/17 cells after 72 hrs by luciferase reporter gene assay. The note with it: Mammarenavirus juninense, HEK-293T. In kind it is functional, organism-based.
In test [6] the test system is Lassa virus. Put plainly: Antiviral activity against Lassa virus pseudovirions infected in HEK293T/17 cells at 50 uM after 72 hrs by luciferase reporter gene assay. It is filed as functional, organism-based. The note with it: Mammarenavirus lassaense, HEK-293T.
In test [7] the test system is Guanarito virus. Nature of the test: Antiviral activity against Guanarito virus pseudovirions infected in HEK293T/17 cells after 72 hrs by luciferase reporter gene assay. The note with it: Mammarenavirus guanaritoense, HEK-293T. In kind it is functional, cell-based.
In test [8] the test system is Lassa virus. Nature of the test: Antiviral activity against Lassa virus infected in guinea pig strain 13 assessed as reduction in viral titre in plasma at 25 mg/kg/day, ip administered at 1 hr prior to infection for 14 days relative to control. The note with it: route intraperitoneal. In kind it is functional, Mammarenavirus lassaense.
Test [9] has as its system Lassa virus. Put plainly: Antiviral activity against Lassa virus infected in guinea pig strain 13 assessed as host survival rate at 25 mg/kg/day, ip administered at 1 hr prior to infection for 14 days relative to control. The note with it: route intraperitoneal. In kind it is functional, Mammarenavirus lassaense.

Activity calls are given as the source filed them. No cut-off for these calls is given here.

Results on 51 molecules are retold here after ChEMBL document CHEMBL2321741, “Discovery and optimization of potent broad-spectrum arenavirus inhibitors derived from benzimidazole” (Bioorg Med Chem Lett, 2013).

The EC50 is the midpoint of the concentration-response curve. The molecule `CCOc1ccc(-n2cnc3cc(NCc4ccc(C)cn4)ccc32)cc1` gave an EC50 in test [1] of 350 nM.

In the case of `COc1ccc(-n2cnc3cc(NCc4ccc(Cc5ccccc5)cc4)ccc32)cc1`, the EC50 in [1] is 46 nM. This EC50 lies about 7.6-fold lower than the previous one.

As to `NC(=O)c1ncn([C@@H]2O[C@H](CO)[C@@H](O)[C@H]2O)n1` [RIBAVIRIN], the Activity in test [2] was found to be 0%.

As to `COc1ccc(-n2cnc3cc(NCc4ccccc4O)ccc32)cc1`, the EC50 in [1] is 310 nM.

Molecule `CCc1ccc(CNc2ccc3c(c2)ncn3-c2ccc(OC)cc2)cc1` returned an EC50 in test [1] of 1.2 nM.

As for `CC(C)c1ccc(CNc2ccc3c(c2)ncn3-c2ccc(Cc3ccccc3)cc2)cc1`, the EC50 in [1] was determined as 120 nM.

As to `CC(C)c1ccc(CNc2ccc3c(c2)ncn3-c2ccc(OCCc3ccccc3)cc2)cc1`, the EC50 in test [1] is 43 nM. This EC50 lies about 2.8-fold lower than the previous one.

In turn, `CCc1ccc(-n2cnc3cc(NCc4ccc(C(C)C)cc4)ccc32)cc1` returned an EC50 in test [1] of 1.9 nM.

`COc1ccc(-n2cnc3cc(NCc4cccc(OC)c4OC)ccc32)cc1` displayed an EC50 in test [1] of 160 nM.

For `COc1ccc(-n2cnc3cc(NCc4ccc(OCCN(C)C)cc4)ccc32)cc1`, the midpoint of the response in test [1], the EC50, lay at 3300 nM. Against the preceding molecule, the EC50 is about 21-fold higher.

In the case of `CC(C)c1ccc(CNc2ccc3c(c2)ncn3-c2ccc(OC(C)(C)C)cc2)cc1`, in test [1], the EC50 came out at 8.6 nM.

On to `COc1ccc(-n2cnc3cc(NC(=O)c4ccc(C)cc4)ccc32)cc1`, for which the EC50 in test [1] was greater than 50000 nM.

Regarding `CCCCOc1ccc(-n2cnc3cc(NCc4ccc(C(C)C)cc4)ccc32)cc1`, the midpoint of the response in test [1], the EC50, lay at 5.6 nM.

As for `CCOc1ccc(-n2cnc3cc(CNc4ccc(CC)cc4)ccc32)cc1`, the half-maximal effective concentration (EC50) in test [3] is 43 nM; in test [1], 11 nM; in [4], 12 nM; in [5] it was 5 nM.

In test [1], `CCOc1ccc(-n2cnc3cc(NCc4ccc(CC(=O)O)cc4)ccc32)cc1` displayed an EC50 of 1300 nM.

Turning to `COc1ccc(-n2cnc3cc(NCc4ccc(Cl)cc4)ccc32)cc1`, in test [1], the EC50 came to 47 nM. This EC50 is about 28-fold lower than that of the molecule before.

Turning to `COc1ccc(-n2cnc3cc(N(Cc4ccc(C(C)C)cc4)C(C)=O)ccc32)cc1`, the concentration for a half-maximal effect (EC50) in [1] was 380 nM.

In [1], `COc1ccc(-n2cnc3cc(NCc4ccc(C(C)(C)C)cc4)ccc32)cc1` had an EC50 of 1.1 nM.

On to `CCCCc1ccc(-n2cnc3cc(NCc4ccc(C(C)C)cc4)ccc32)cc1`, for which the midpoint of the response in test [1], the EC50, lay at 4.4 nM. This EC50 lies about 4-fold higher than the previous one.

In the case of `CC(C)c1ccc(CNc2ccc3c(c2)ncn3-c2ccc(Oc3ccccc3)cc2)cc1`, the EC50 in [1] turned out to be 130 nM.

With `CCCCOc1ccc(CNc2ccc3c(c2)ncn3-c2ccc(OC)cc2)cc1`, a half-maximal effect in test [1] (EC50) was put at 6 nM.

Regarding `CC(C)c1ccc(CNc2ccc3c(c2)ncn3-c2ccccc2)cc1`, in test [1], the EC50 came to 5.2 nM.

In [1], `CCc1ccc(CNc2ccc3c(c2)ncn3-c2ccc(OC)cn2)cc1` came in with an EC50 of 5.8 nM.

In turn, `Cc1ccc(CNc2ccc3c(c2)ncn3C2CCCCC2)cc1` had an EC50 in test [1] of 320 nM. Against the preceding molecule, the EC50 is about 55-fold higher.

With `CC(C)c1ccc(CNc2ccc3c(c2)ncn3-c2ccc(Oc3ccc4ccccc4c3)cc2)cc1`, in [1], the EC50 amounted to 540 nM.

In the case of `CNc1ccc2c(c1)ncn2-c1ccc(OC)cc1`, the result in test [6] was inactive.

For `CCOc1ccc(CNc2ccc3c(c2)ncn3-c2ccc(OC)cc2)cc1`, the EC50 in test [1] is 4 nM.

On to `COc1ccc(-n2cnc3cc(NCc4ccc(Oc5ccccc5)cc4)ccc32)cc1`, for which, in test [1], it took 380 nM to reach a half-maximal effect (EC50).

Regarding `COc1ccc(CNc2ccc3c(c2)ncn3-c2ccc(OC)cc2)cc1`, the EC50 in test [3] stood at 110 nM; in [7], 5.6 nM; in test [1] it was 11 nM; in test [4] it was 45 nM; in test [5], 7.7 nM.

In turn, `CCOc1ccc(-n2cnc3cc(NCc4ccc(C)nc4)ccc32)cc1` returned an EC50 in [1] of 240 nM.

As to `COc1ccc(-n2cnc3cc(NCc4ccc(CN(C)C)cc4)ccc32)cc1`, in test [1], a half-maximal response (EC50) required 270 nM.

In [1], `COc1ccc(-n2cnc3cc(NCc4ccccc4OC)ccc32)cc1` had an EC50 of 460 nM.

In [1], `COc1ccc(-n2cnc3cc(NCc4cccc5ccccc45)ccc32)cc1` displayed an EC50 of 69 nM. This EC50 lies about 6.7-fold lower than the previous one.

Molecule `COc1ccc(-n2cnc3cc(NCc4ccco4)ccc32)cc1` yielded an EC50 in test [1] of 1200 nM.

As to `COc1ccc(-n2cnc3cc(NCc4ccc(C(C)C)cc4)ccc32)cc1`, the EC50 came out at 21 nM in test [3]; 0.44 nM in test [7]; 1.4 nM in test [1]; 3.1 nM in test [4]; 0.62 nM in test [5]. The “fold change (FC)” value in test [8] is given as 2. Also, in [9], the Activity was determined as 63%.

`CC(C)c1ccc(CNc2ccc3ncn(-c4ccc(OC(C)(C)C)cc4)c3c2)cc1`: the EC50 in [1] is 180 nM.

Molecule `CCCCc1ccc(CNc2ccc3c(c2)ncn3-c2ccc(OC)cc2)cc1` gave an EC50 in [1] of 1.5 nM.

For the molecule `CCc1ccc(CNc2ccc3c(c2)ncn3-c2ccc(OC)nc2)cc1`, in test [1], a half-maximal response (EC50) required 32 nM. Against the preceding molecule, the EC50 is about 21-fold higher.

`CCc1ccc(CNc2ccc3c(c2)ncn3-c2ccc(OC)nn2)cc1` yielded an EC50 in test [1] of 81 nM.

Molecule `COc1ccc(-n2cnc3cc(NCc4ccc(CN5CCOCC5)cc4)ccc32)cc1` registered an EC50 in test [1] of 790 nM.

In test [1], `COc1ccc(-n2cnc3cc(NCc4cccc(OC)c4)ccc32)cc1` displayed an EC50 of 35 nM.

Molecule `CCc1ccc(CNc2ccc3c(c2)ncn3-c2cnc(OC)nc2)cc1` yielded an EC50 in [1] of 450 nM.

The molecule `COc1ccc(-n2cnc3cc(NCc4ccc(CN5CCN(C)CC5)cc4)ccc32)cc1` yielded an EC50 in test [1] of 16000 nM.

Take `CCCNc1ccc2c(c1)ncn2-c1ccc(OC)cc1`: the result in [6] was inactive.

On to `COc1ccc(-n2cnc3cc(NCc4ccc(CN5CCCCC5)cc4)ccc32)cc1`, for which a half-maximal response in [1] (EC50) required 1400 nM.

For `COc1ccc(-n2cnc3cc(N(Cc4ccc(C(C)C)cc4)S(=O)(=O)c4ccc(C)cc4)ccc32)cc1`, the EC50 was found to be 510 nM in test [3], 110 nM in [1], 40 nM in test [4] and 16 nM in test [5].

As for `COc1ccc(-n2cnc3cc(NCc4ccc(OC(C)(C)C)cc4)ccc32)cc1`, the EC50 in test [1] was determined as 5.2 nM.

Molecule `CCOc1ccc(-n2cnc3cc(NCc4cnc(CC)nc4)ccc32)cc1` yielded an EC50 in test [1] of 450 nM.

In [1], `COc1ccc(-n2cnc3cc(N(C)Cc4ccc(C(C)C)cc4)ccc32)cc1` had an EC50 of 57 nM.

For the molecule `CC(C)c1ccc(CNc2ccc3c(c2)ncn3-c2ccc(C(C)(C)C)cc2)cc1`, in [1], the response was half-maximal at 4 nM (EC50).

`COc1ccc(-n2cnc3cc(NCc4ccc(OC)c(OC)c4)ccc32)cc1`: a half-maximal effect in [1] (EC50) was put at 700 nM.
